Data taken from patent publication US7494996B2 (priority 2000, dated 2009).

Experiments:
Pyricularia oryzae = experiment: whole plant or invertebrate; type: in vivo; conditions: 100 is total disease control, 0 is no disease control; for pest or weed control at 300 g/ha: Pyricularia oryzae, topical, 144 h, read-out: Rice Blast (RB) protectant fungicide data, percent control, protectant, 300 g/ha, greenhouse; for Rice Blast (RB) protectant fungicide data, percent control: 300 g/ha, greenhouse
Mexican Bean Beetle = experiment: Protocol 1 Mexican Bean Beetle (BB) foliar spray test; type: in vivo, Epilachna verivestis; conditions: control rated after 48 hours (100 = all larvae dead)
Procedure: (§1) A test solution containing 1250 parts per million (ppm) was prepared by dissolving the test compound in […] of a second solvent (acetone: water, 1:1) to give an acetone:water: methanol system of 50: 40:10.
(§2) The enclosed spraying chamber consisted of a single spray nozzle mounted on a boom moving at a fixed speed and distance over stationary targets. The vertical distance from the nozzle tip to the targets was adjusted to give rates varying from 150 g/ha to 600 g/ha
(§3) Individual fully expanded primary lima bean (Phaseolus limensis) leaves were placed bottom side up on moistened pieces of filter paper in Petri dishes. The leaves were sprayed with the test solutions and allowed to dry. The dishes were infested with 5 third instar larvae of the mexican bean beetle, covered with the lids, and held at 27° C. Bean beetle control was rated by visual inspection after 48 hours. […] A rating of 0 indicated no dead larvae and normal feeding. Intermediate control was indicated by intermediate ratings.

Sphaerotheca fuliginea = experiment: Cucumber Powdery Mildew (CPM) protectant test in the greenhouse; type: in vivo; conditions: 100 is total disease control, 0 is no disease control; for pest or weed control at 300 g/ha: Podosphaera fuliginea, topical, 168 h, read-out: Cucumber Powdery Mildew (CPM) protectant fungicide data, percent control; for Cucumber Powdery Mildew (CPM) protectant fungicide data, percent control: 300 g/ha
Summary of the method: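 Protectant format: one day after spraying with test compound (A/M/W 1:1:2), cotyledon-plus-one-leaf cucumber plants were misted with Sphaerotheca spores at 2×10^5/ml. Greenhouse disease development; percent control scored at day 7 (100 = total, 0 = none).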

Southern Armyworm = experiment: Protocol 1 Southern Armyworm (AW) foliar spray test; type: in vivo, Spodoptera eridania
Procedure: as §1, §2
as §3, with “southern armyworm,” for “mexican bean beetle,”, “Armyworm” for “Bean beetle”

Two-Spotted Spider Mite = experiment: Protocol 1 Two-Spotted Spider Mite (MTA) foliar spray test; type: in vivo, Tetranychus urticae; conditions: percentage of mites killed 1-day post-treatment
Procedure: as §1, §2
A pad of moistened cotton was placed in a Petri dish. A 1-inch square section cut from a fully expanded primary lima bean (Phaseolus limensis) leaf was positioned bottom side up on the moist cotton. The leaf square was infested with approximately 50 adult female mites. The dishes were sprayed with the test solutions and held at 27° C. for mortality determination 1-day post-treatment. The percentage of mites killed were rated from 100% (all dead) to 0% (all alive).

| SMILES | MTA (Two-Spotted Spider Mite; Protocol 1, DOSE 150) | Rice Blast (RB) protectant fungicide data, percent control (Pyricularia oryzae) | Cucumber Powdery Mildew (CPM) protectant fungicide data, percent control (Sphaerotheca fuliginea) | other results |
| --- | --- | --- | --- | --- |
| O=C1CNC(c2ccc(Cl)cc2)=NN1CC(F)(F)F [Compound 4, 1-(2,2,2-trifluoroethyl)-3-(4-chlorophenyl)-4,5-dihydro-1,2,4-triazin-6-one] | – | – | – | pest or weed control at 300 g/ha (Pyricularia oryzae): 99%; BB (Mexican Bean Beetle; Protocol 1, DOSE 300): 0; pest or weed control at 300 g/ha (Sphaerotheca fuliginea): 50%; AW (Southern Armyworm; Protocol 1, DOSE 300): 75 |
| O=C1CNC(c2ccc(Cl)cc2)=NN1 [Compound 5, 3-(4-Chlorophenyl)-4,5-dihydro-1,2,4-triazin-6-one] | – | – | – | pest or weed control at 300 g/ha (Pyricularia oryzae): 75%; BB (Mexican Bean Beetle; Protocol 1, DOSE 300): 75; pest or weed control at 300 g/ha (Sphaerotheca fuliginea): 50%; AW (Southern Armyworm; Protocol 1, DOSE 600): 50 |
| CC(C)(C)N1N=C(c2ccc(Cl)cc2)NCC1=O [Compound 6, 1-t-Butyl-3-(4-chlorophenyl)-4,5-dihydro-1,2,4-triazin-6-one] | – | – | – | pest or weed control at 300 g/ha (Pyricularia oryzae): 90%; BB (Mexican Bean Beetle; Protocol 1, DOSE 300): 100; pest or weed control at 300 g/ha (Sphaerotheca fuliginea): 50%; AW (Southern Armyworm; Protocol 1, DOSE 300): 0 |
| O=c1cnc(-c2ccccc2)nn1CC(F)(F)F [Compound 7, 1-(2,2,2-trifluoroethyl)-3-phenyl-1,2,4-triazin-6-one] | – | – | – | pest or weed control at 300 g/ha (Pyricularia oryzae): 95%; BB (Mexican Bean Beetle; Protocol 1, DOSE 300): 100; pest or weed control at 300 g/ha (Sphaerotheca fuliginea): 75%; AW (Southern Armyworm; Protocol 1, DOSE 300): 0 |
| CCC#CCn1nc(-c2ccc(Cl)cc2)ncc1=O [Compound 8, 1-(2-pentynyl)-3-(4-chlorophenyl)-1,2,4-triazin-6-one] | – | – | – | pest or weed control at 300 g/ha (Pyricularia oryzae): 99%; BB (Mexican Bean Beetle; Protocol 1, DOSE 300): 0; pest or weed control at 300 g/ha (Sphaerotheca fuliginea): 90%; AW (Southern Armyworm; Protocol 1, DOSE 300): 0 |
| CCCSC1NC(c2ccc(Cl)cc2)=NN(CC(F)(F)F)C1=O (stereo not drawn) [Compound 19, 1-(2,2,2-trifluoroethyl)-3-(4-chlorophenyl)-5-propylthio-4,5-dihydro-1,2,4-triazin-6-one] | – | – | – | pest or weed control at 300 g/ha (Pyricularia oryzae): 100%; BB (Mexican Bean Beetle; Protocol 1, DOSE 150): 100; pest or weed control at 300 g/ha (Sphaerotheca fuliginea): 75%; AW (Southern Armyworm; Protocol 1, DOSE 150): 0 |
| CN1CC(=O)N(CC(F)(F)F)N=C1c1ccccc1 [Compound 34] | – | – | – | BB (Mexican Bean Beetle; Protocol 1, DOSE 300): 75; AW (Southern Armyworm; Protocol 1, DOSE 300): 0; MTA (Two-Spotted Spider Mite; Protocol 1, DOSE 300): 0% |
| O=C1CN(Cc2ccc(Cl)s2)C(c2ccc(Cl)cc2)=NN1Cc1ccc(Cl)s1 [Compound 63] | 0% | – | – | – |
| CCCCN1N=C(c2ccc(F)c(F)c2)NCC1=O [Compound 69] | 68% | 95 percent control | 80 percent control | – |
| O=C1CNC(c2cc(Cl)ccc2Cl)=NN1CC(F)(F)F [Compound 70] | 71% | 80 percent control | 80 percent control | – |
| CCN1N=C(c2ccc(Cl)c(Cl)c2)NCC1=O [Compound 100] | 25% | 99 percent control | 80 percent control | – |
| CCCCN1N=C(c2ccc(Cl)c(Cl)c2)NCC1=O [Compound 101] | 0% | 100 percent control | 80 percent control | – |
| O=C1CNC(c2ccc(Cl)c(Cl)c2)=NN1Cc1ccccc1 [Compound 103] | 23% | 90 percent control | 0 percent control | – |
| O=C1CNC(c2cc(Cl)cc(Cl)c2)=NN1CC1CC1 [Compound 109] | 90% | 100 percent control | 95 percent control | – |
| CCCCN1N=C(c2cccc(Cl)c2)NCC1=O [Compound 110] | 100% | 99 percent control | 90 percent control | – |
| Cc1cccc(N2N=C(c3cccc(Cl)c3)NCC2=O)c1 [Compound 112] | 0% | 85 percent control | 80 percent control | – |
| COC(=O)C(=O)N1CC(=O)N(CC(F)(F)F)N=C1c1cc(Cl)cc(Cl)c1 [Compound 123] | 0% | 95 percent control | 50 percent control | – |
| C=COC(=O)N1CC(=O)N(CCCC)N=C1c1cc(Cl)cc(Cl)c1 [Compound 127] | 95% | 95 percent control | 50 percent control | – |

| SMILES | MTA (Two-Spotted Spider Mite; Protocol 1, DOSE 150) | Rice Blast (RB) protectant fungicide data, percent control (Pyricularia oryzae) | Cucumber Powdery Mildew (CPM) protectant fungicide data, percent control (Sphaerotheca fuliginea) | other results |
| --- | --- | --- | --- | --- |
| C#CCOC(=O)N1CC(=O)N(CCCC)N=C1c1cc(Cl)cc(Cl)c1 [Compound 133] | 0% | 80 percent control | 0 percent control | – |
| C=CCOC(=O)N1CC(=O)N(CCCC)N=C1c1cc(Cl)cc(Cl)c1 [Compound 135] | 43% | 90 percent control | 50 percent control | – |
| O=C1CNC(c2cc3ccccc3s2)=NN1CC(F)(F)F [Compound 163] | 100% | 90 percent control | 0 percent control | – |
| CCCCCCCCn1nc(-c2ccc(Cl)cc2)ncc1=O [Compound 259] | 0% | 90 percent control | 75 percent control | – |
| CCCCCCCCCCn1nc(-c2ccc(Cl)cc2)ncc1=O [Compound 260] | 0% | 75 percent control | 0 percent control | – |
| CCCCCCn1nc(-c2ccc(Cl)cc2)ncc1=O [Compound 262] | 0% | 85 percent control | 80 percent control | – |
| C[Si](C)(C)Cn1nc(-c2ccc(Cl)cc2)ncc1=O [Compound 265] | 0% | 85 percent control | 90 percent control | – |
| O=c1cnc(-c2ccc(Cl)cc2)nn1Cc1ccc(Cl)s1 [Compound 266] | 0% | 90 percent control | 50 percent control | – |
| CCCCn1nc(-c2ccc(Cl)c(Cl)c2)ncc1=O [Compound 270] | 0% | 100 percent control | 95 percent control | – |
| CCCCn1nc(-c2cc(Cl)cc(Cl)c2)ncc1=O [Compound 271] | 93% | 99 percent control | 50 percent control | – |
| O=c1cnc(-c2ccc(F)c(Br)c2)nn1CC(F)(F)F [Compound 290] | – | 100 percent control | 50 percent control | – |
| Cc1ccccc1-c1nn(CC(F)(F)F)c(=O)c(=O)[nH]1 [Compound 291] | – | – | – | pest or weed control at 300 g/ha (Pyricularia oryzae): 80%; pest or weed control at 300 g/ha (Sphaerotheca fuliginea): 0% |
| COC(=O)SN1CC(=O)N(CC(F)(F)F)N=C1c1cc(Cl)cc(Cl)c1 [Compound 292] | – | 99 percent control | 75 percent control | – |
| Cc1ccc(C2=NN(CC(F)(F)F)C(=O)CN2)cc1Cl [Compound 293] | – | 100 percent control | 50 percent control | – |
| CCCCN1N=C(c2ccc(C)c(Cl)c2)NCC1=O [Compound 294] | – | 100 percent control | 80 percent control | – |
| CCCCN1N=C(c2cc(C)cc(C)c2)NCC1=O [Compound 295] | – | 99 percent control | 50 percent control | – |
| Cc1cc(C)cc(C2=NN(CC(F)(F)F)C(=O)CN2)c1 [Compound 296] | – | 98 percent control | 75 percent control | – |
